Source: US5516777A, “Condensed pyrazole derivatives, and androgen inhibitor” (Otsuka Pharmaceutical Co., Ltd., priority 1992, dated 1996)

Assays:
[1] = target: T1, rat prostate androgen receptor (Rattus norvegicus, UniProt P15207); details: 1 nM ^3 H-mibolerone, 20 hours at 0° C., rat ventral prostate cytosol; read-out: Inhibitory activity on mibolerone specific binding [IC50 (M)]
T1 sequence (P15207 1-902): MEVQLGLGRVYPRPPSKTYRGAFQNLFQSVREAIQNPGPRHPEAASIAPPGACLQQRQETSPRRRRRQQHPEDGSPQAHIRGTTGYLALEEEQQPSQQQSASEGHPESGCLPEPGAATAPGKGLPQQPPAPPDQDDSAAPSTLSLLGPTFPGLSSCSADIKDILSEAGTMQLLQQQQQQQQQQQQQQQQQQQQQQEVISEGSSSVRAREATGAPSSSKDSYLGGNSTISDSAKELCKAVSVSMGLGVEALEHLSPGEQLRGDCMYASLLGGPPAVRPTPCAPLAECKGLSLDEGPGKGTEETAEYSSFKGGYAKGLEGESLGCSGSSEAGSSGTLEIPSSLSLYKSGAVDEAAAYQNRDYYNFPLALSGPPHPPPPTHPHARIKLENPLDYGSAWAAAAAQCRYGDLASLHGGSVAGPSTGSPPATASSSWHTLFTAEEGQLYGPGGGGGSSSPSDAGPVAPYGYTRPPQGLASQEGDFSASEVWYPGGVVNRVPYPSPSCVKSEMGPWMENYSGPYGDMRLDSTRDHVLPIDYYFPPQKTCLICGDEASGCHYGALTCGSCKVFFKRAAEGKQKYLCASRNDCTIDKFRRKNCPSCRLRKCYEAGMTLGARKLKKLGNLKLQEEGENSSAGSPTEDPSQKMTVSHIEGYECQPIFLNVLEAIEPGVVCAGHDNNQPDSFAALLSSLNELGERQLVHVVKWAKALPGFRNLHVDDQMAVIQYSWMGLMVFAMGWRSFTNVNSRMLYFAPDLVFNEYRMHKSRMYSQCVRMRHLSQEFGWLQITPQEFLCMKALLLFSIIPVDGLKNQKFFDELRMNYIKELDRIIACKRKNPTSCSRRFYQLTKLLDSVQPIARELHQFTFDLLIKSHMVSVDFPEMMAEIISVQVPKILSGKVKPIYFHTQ
Experimental: Assay of inhibitory activity to binding of ^3 H-mibolerone on rat prostate androgen receptor
(1) Preparation of Cytosol from Rat Prostate
The rats were killed 24 hours after castration, and the ventral prostate glands were removed, and was gently homogenized, with three volume of buffer solution A (1.5 mM EDTA, 2 mM dithiothreitol, 10 mM molybdate sodium, 10% by volume of glycerol, 10 mM NaF, 25 mM phosphate sodium, pH 7.2) on ice-water bath, in Polytron, and Potter type homogenizer. The obtained homogenate was filtrated through double gauze, and centrifuged at 105,000×g for 60 minutes at 4° C., and the supernatant was obtained as cytoplasm fraction.
(2) Measurement of Specific binding of ^3 H-mibolerone to Prostate Cytoplasm Androgen Receptor
To the cytoplasm fraction obtained in (1) was added ^3 H-mibolerone (87.0 Ci/millimol), so that a final concentration is adjusted to 1 nM, and at the same time, in order to block binding of ^3 H-mibolerone to progestin receptor, triamsinolone acetonide was added to a final concentration of 5 μM, and the final volume was adjusted to 0.4 ml with buffer solution A, and the reaction mixture was incubated for 20 hours at 0° C. After incubation, 0.5 ml of 60% hydroxylapatite slurry (washed and equilibrate with a buffer solution B: 10 mM NaH2 PO4, 20 mM tris-hydrochloric acid, pH 7.2) was added, and incubated for 10 minutes at 0° C., the solution was transferred onto a glass fiber filter, and washed five times with 5 ml portions of buffer solution B containing 0.1% (weight/volume) of Triton X-100, to remove free ^3 H-mibolerone. This glass fiber was transferred into vial, and 10 ml of aquasol- 2 was added, and the radioactivity was measured, and the total binding amount of ^3 H-mibolerone on prostate cytoplasm androgen receptor was determined.
The nonspecific binding amount was determined similarly by adding an unlabeled 5α-DHT in the reaction solution to a final concentration of 1 μM. The difference between the total binding amount and nonspecific binding amount was determined as the specific binding amount on the androgen receptor.
(3) Inhibitory Activity of Sample Compounds on ^3 H-mibolerone Specific Binding
The various concentrations of compounds obtained in the experiments were added simultaneously with ^3 H-mibolerone to incubate same as in (2), and the specific binding amount of ^3 H-mibolerone on androgen receptor was determined. Comparing this value with the value obtained in (2), the IC50 value of inhibitory activity of the compounds on ^3 H-mibolerone specific binding was determined.

[2] = In vitro drug metabolism in rat liver extract; format: in vitro ADME, male Wistar rats; details: pH 7.4, 37° C.; for remaining at 5 min / remaining at 0.25 h / remaining at 0.5 h / remaining at 1 h: rat liver extract; for remaining at 5 min: read-out: Residual amount of test compound, 5 min.; for remaining at 0.25 h: 15 min., read-out: Residual amount of test compound, 15 min.; for remaining at 0.5 h: 30 min., read-out: Residual amount of test compound, 30 min.; for remaining at 1 h: 60 min., read-out: Residual amount of test compound, 60 min.; for half-life: half-life in the rat liver extract, read-out: Half-time period
Experimental: 2. In vitro drug metabolism in rat liver extract
The resistance of the compound against metabolic degradation by rat liver extract was investigated.
The male Wistar rats (weighing about 200 g) were used after fasting for 24 hours. The rat was sacrificed under ether anesthesia, and the livers were removed and were placed onto the ice.
The liver was minced with scissors under ice-cooling, and homogenized in the presence of 4 volumes of 1.15% KCl-0.1M phosphate buffer (pH 7.4) with a Potter type homogenizer. The homogenates were centrifuged at 9,000×g for 10 minutes at 4° C., and the supernatant filtered through the cheese-cloth was used as an enzyme solution.
The constitution of the reaction mixture was shown in below. 0.1M Buffer was sufficiently bubbled in 95% O2 -5% CO2 gas before use.
Glucose 6-phosphate (60.8 mg.ml)
Nicotineamide (9.16 mg/ml)
The tested samples were dissolved in dimethyl sulfoxide. MgCl2 ·6H2 O was dissolved in a distilled water, and all other reagents were dissolved in 0.1M phosphate buffer. The reaction was initiated by adding enzyme solution, and shaked at 37° C. with 120 cycles/minutes in Spitz test tubes with stoppers. The reaction was stopped by adding methanol after 5, 15, 30 and 60 minutes.
After termination of the reaction, samples were mixed by using of a Vortex mixer, and centrifuged at 3,000 rpm for 10 minutes. The supernatant was applied to a high-performance liquid chromatography of which conditons are shown in below. A residual amount of the mother compound was determined at certain time intervals, whererby half-life of the compound in the rat liver extract was calculated.
Column: Chemcosorb 5C18-300 Å 4.6 mm diameter and 150 mm length
Colume temperature: 50° C.

| SMILES | IC50 [1] | remaining at 5 min [2] | remaining at 0.25 h [2] | remaining at 0.5 h [2] | remaining at 1 h [2] | half-life [2] |
| --- | --- | --- | --- | --- | --- | --- |
| COc1cc(Cc2ccc(-c3cnn4c(O)ncnc34)cc2)cc(OC)c1 [Example 32, 4-hydroxy-8-[4-(3,5-dimethoxyphenylmethyl)phenyl]pyrazolo[1,5-a]-1,3,5-triazine] | 7.7e-07 M |  |  |  |  |  |
| COc1cc(-c2cnn3c(O)ncnc23)ccc1Sc1ccccc1 [Compound A3, reference compound] |  | 38.3% | 18.6% | 19.2% | 16.5% | 3 min |
| Cc1cc(-c2cnn3c(O)ncnc23)ccc1Sc1ccccc1 [Compound A2, reference compound] |  | 32.5% | 14.8% | 13.7% | 12.3% | 2.5 min |
| CC(C)(c1ccccc1)c1ccc(-c2cnn3c(O)ncnc23)cc1 [Example 33, 4-hydroxy-8-[4-(2-phenylporpan-2-yl)phenyl]pyrazolo[1,5-a]-1,3,5-triazine] | 1.2e-07 M |  |  |  |  |  |
| Oc1ncnc2c(-c3ccc(Cc4ccc(Cl)cc4)cc3)cnn12 [Example 22, 8-[4-(4-chlorophenylmethyl)phenyl]-4-hydroxypyrazolo[1,5-a]-1,3,5-triazine] | 9.3e-08 M |  |  |  |  |  |
| CCCC(c1ccccc1)c1ccc(-c2cnn3c(O)ncnc23)cc1 (stereo not drawn) [Example 20, 4-hydroxy-8-[4-(α-propylbenzyl)phenyl]pyrazolo[1,5-a]-1,3,5-triazine] | 2e-07 M |  |  |  |  |  |
| Cc1cc(-c2cnn3c(O)ccnc23)ccc1Sc1ccccc1 [Compound B1, reference compound] |  | 46.5% | 25.6% | 25.1% | 27% | 4.6 min |
| Oc1ccnc2c(-c3ccc(Cc4ccc5c(c4)OCO5)cc3)cnn12 [Example 35, 7-hydroxy-4-[4-(3,4-methylenedioxyphenylmethyl)phenyl]pyrazolo[1,5-a]pyrimidine] | 2.2e-07 M |  |  |  |  |  |
| COc1cc(-c2cnn3c(O)ccnc23)ccc1Sc1ccccc1 [Compound B2, reference compound] |  | 54.3% | 32.9% | 31.4% | 24.4% | 6.5 min |
| Oc1ncnc2c(-c3ccc(Sc4ccccc4)cc3)cnn12 [Compound A1, reference compound] |  | 32.3% | 13.8% | 13.1% | 13% | 2.4 min |
| Oc1ncnc2c(-c3ccc(Cc4ccccc4)c(Cl)c3)cnn12 [Example 3, 8-(4-benzyl-3-chloro)phenyl-4-hydroxypyrazolo[1,5-a]-1,3,5-triazine] | 4e-07 M |  |  |  |  |  |
| Oc1ncnc2c(-c3ccc(Cc4ccc5c(c4)OCO5)cc3)cnn12 [Example 31, 4-hydroxy-8-[4-(3,4-methylenedioxyphenylmethyl)phenyl]pyrazolo[1,5-a]-1,3,5-triazine] | 7.5e-07 M |  |  |  |  |  |
| COc1ccccc1Cc1ccc(-c2cnn3c(O)ncnc23)cc1OC [Example 9] | 9.5e-08 M |  |  |  |  |  |
| COc1ccccc1Cc1ccc(-c2cnn3c(O)ncnc23)cc1 [Example 17, 4-hydroxy-8-[4-(2-methoxyphenylmethyl)phenyl]pyrazolo[1,5-a]-1,3,5-triazine] | 8.7e-07 M |  |  |  |  |  |
| Cc1ccc(Cc2ccc(-c3cnn4c(O)ncnc34)cc2)cc1 [Example 16, 4-hydroxy-8-[4-(4-methylphenylmethyl)phenyl]pyrazolo[1,5-a]-1,3,5-triazine] | 3e-07 M |  |  |  |  |  |
| COc1cc(-c2cnn3c(O)ncnc23)ccc1Cc1ccc(C)cc1 [Example 8] | 1.1e-07 M |  |  |  |  |  |
| CC(C)(c1ccccc1)c1ccc(-c2cnn3c(O)ccnc23)cc1 [Example 34, 7-hydroxy-3-[4-(2-phenylpropan-2-yl)phenyl]pyrazolo[1,5-a]pyrimidinie] | 9e-08 M |  |  |  |  |  |
| COc1ccc(Cc2ccc(-c3cnn4c(O)ncnc34)cc2)cc1 [Example 18, 4-hydroxy-8-[4-(4-methoxyphenylmethyl)phenyl]pyrazolo[1,5-a]-1,3,5-triazine] |  | 96.5% | 86.2% | 71.6% | 52.4% | > 60 min |
| Oc1ncnc2c(-c3ccc(Cc4cccc(Cl)c4)cc3)cnn12 [Example 21, 8-[4-(3-chlorophenylmethyl)phenyl]-4-hydroxypyrazolo[1,5-a]-1,3,5-triazine] | 1.1e-07 M |  |  |  |  |  |

Other lines, results leading:

| IC50 [1] | remaining at 5 min [2] | remaining at 0.25 h [2] | remaining at 0.5 h [2] | remaining at 1 h [2] | half-life [2] | SMILES |
| --- | --- | --- | --- | --- | --- | --- |
| 8.2e-08 M |  |  |  |  |  | Cc1cccc(Cc2ccc(-c3cnn4c(O)ccnc34)cc2)c1 [Example 27, 7-hydroxy-3-[4-(3-methylphenylmethyl)phenyl]pyrazolo[1,5-a]pyrimidine] |
| 2.3e-08 M | 93% | 91.8% | 97.4% | 90.8% | > 60 min | COc1cc(-c2cnn3c(O)ncnc23)ccc1Cc1cccc(C)c1 [Example 12] |
| 2.5e-08 M |  |  |  |  |  | Cc1cccc(Cc2ccc(-c3cnn4c(O)ccnc34)cc2C)c1 [Example 30] |
| 3e-08 M | 93.7% | 89.9% | 82.7% | 83.8% | > 60 min | Cc1cc(-c2cnn3c(O)ncnc23)ccc1Cc1ccccc1 [Example 5, 8-(4-benzyl-3-methyl)phenyl-4-hydroxypyrazolo[1,5-a]-1,3,5-triazine] |
| 3.9e-08 M | 94.4% | 84.7% | 68.3% | 42.4% | 52 min | CC(c1ccccc1)c1ccc(-c2cnn3c(O)ncnc23)cc1 (stereo not drawn) [Example 19, 4-hydroxy-8-[4-(α-methylbenzyl)phenyl]pyrazolo[1,5-a]-1,3,5-triazine] |
| 7.4e-08 M | 56.9% | 44.6% | 49.9% | 38.2% | 30 min | COc1cc(-c2cnn3c(O)ncnc23)ccc1Cc1ccccc1 [Example 4, 8-(4-benzyl-3-methoxy)phenyl-4-hydroxypyrazolo[1,5-a]-1,3,5-triazine] |
| 2.6e-08 M |  |  |  |  |  | COc1cccc(C(C)c2ccc(-c3cnn4c(O)ncnc34)cc2)c1 (stereo not drawn) [Example 23, 4-hydroxy-8-{4-[1-(3-methoxyphenyl)ethan-1-yl)phenyl}pyrazolo[1,5-a]-1,3,5-triazine] |
| 1.3e-08 M |  |  |  |  |  | COc1cccc(Cc2ccc(-c3cnn4c(O)ccnc34)cc2C)c1 [Example 26, 7-hydroxy-3-[4-(3-methoxyphenylmethyl)-3-methyl]phenylpyrazolo[1,5-a]pyrimidine] |
| 2e-08 M |  |  |  |  |  | Cc1cccc(Cc2ccc(-c3cnn4c(O)ncnc34)cc2C)c1 [Example 29, 4-hydroxy-8-[3-methyl-4-(3-methylphenylmethyl)phenyl]pyrazolo[1,5-a]-1,3,5-triazine] |
| 2.6e-08 M |  |  |  |  |  | COc1cccc(Cc2ccc(-c3cnn4c(O)ccnc34)cc2OC)c1 [Example 24, 7-hydroxy-3-[3-methoxy-4-(3-methoxyphenylmethyl)phenyl]pyrazolo[1,5-a]pyrimidine] |
| 2.8e-08 M |  |  |  |  |  | CC(c1ccccc1)c1ccc(-c2cnn3c(O)ccnc23)cc1 (stereo not drawn) [Example 25, 7-hydroxy-3-[4-(α-methylbenzyl)phenyl]pyrazolo[1,5-a]pyrimidine] |
| 6.2e-08 M |  |  |  |  |  | COc1cc(-c2cnn3c(O)ncnc23)ccc1Cc1ccccc1C [Example 7] |
